Experimental data: patent publication US20140121240A1, “NOVEL PHARMACEUTICAL COMPOSITION” (MARUHO CO., LTD., priority 2011, published 2014)
Marks after values point to notes of the source that are not given here.

Key:
[1] = system: histamine-induced scratching behavior; test: Antipruritic effect in histamine-induced scratching model (Experiment 2); assay type: in vivo, mouse; conditions: for Antipruritic activity (ratio of inhibition rate on scratching behavior to that of Compound A): 3% w/v in acetone 50 μL topical 1 h before histamine 300 nmol/50 μL, ICR female mice, counts for 30 minutes; for antipruritic effect in histamine-induced scratching model, result in words: 3% w/v topical, histamine 300 nmol/50 μL
Experimental: [Antipruritic Effect of Test Compound in Histamine-Induced Scratching Model]
After topical administration of a 3% w/v solution of a test compound or a reference compound as described in the following Table 6 in acetone (50 μL) or a vehicle (acetone; 50 μL) onto right dorsal neck of ICR female mice similarly pre-treated as described in Experiment 1, these animals were placed into a testing apparatus (MicroAct). After one hour of the administration of said compound solution or vehicle, a solution (50 μL) of histamine in saline (300 nmol/50 μL) or saline (50 μL) was intradermally administered to right dorsal neck of each mouse. Immediately after the administration, scratching behavior (counts of scratching) was measured for 30 minutes by MicroAct.
Inhibition rate on scratching behavior of each test compound was evaluated in terms of the following formula based on the counts of scratching in the test group in which each test compound solution was administered followed by administration of a histamine solution in saline (counts of scratching in compound-treated group), and the counts of scratching in the test group in which a vehicle (acetone) was administered followed by administration of a histamine solution in saline (counts of scratching in vehicle-treated group).
(§1) Ratio of inhibition rate on scratching behavior of each test compound to that of Compound A was calculated as antipruritic activity (%). For reference, PDE4 inhibitory activity of each compound (IC50) which was measured by a conventional manner is also shown in such Table.

PDE4 = PDE4 inhibitory activity measured by a conventional manner; assay type: biochemical
Experimental: as §1

[2] = system: spontaneous locomotor activity; test: Effect on spontaneous locomotor activity (Experiment 3 (2)); assay type: in vivo, mouse; conditions: for Spontaneous locomotor activity (Mean): measured from 1 h after administration
Experimental: (2) [Effect of Test Compound on Spontaneous Locomotor Activity] The same solution (50 μL) of test compound or a vehicle (50 μL) as described in the above-mentioned (1) was administered onto right dorsal neck of ICR female mice similarly pre-treated as described in Experiment 1. After one hour of the administration of the test compound solution or vehicle, these animals were placed into an apparatus for measuring spontaneous locomotor activity (SCANET, Melquest Ltd.), and their locomotor activity was measured for 30 minutes.

[3] = system: histamine-induced scratching behavior; test: Antipruritic activity in histamine-induced scratching model, dose response (Experiment 3 (1)); assay type: in vivo, mouse
Experimental: (1) [Antipruritic Activity of Test Compound in Histamine-Induced Scratching Model]
After topical administration of a solution (50 μL) of test compound (0.3 to 3% w/v solution of Compound A in acetone, or 0.03 to 0.3% w/v solution of cipamfylline in acetone), or a vehicle (acetone; 50 μL) onto right dorsal neck of ICR female mice similarly pre-treated as described in Experiment 1, these animals were placed into a testing apparatus (MicroAct). After one hour of the administration of said test compound solution or vehicle, a solution (50 μL) of histamine in saline (300 nmol/50 μL) or saline (50 μL; control group) was intradermally administered to right dorsal neck of each mouse. Immediately after the administration, scratching behavior (counts of scratching) was measured for 30 minutes by the testing apparatus (MicroAct).

[4] = system: oxazolone-induced inflammatory reactions of right ear auricle; test: Chronic oxazolone-induced dermatitis model: ear auricle thickness (Experiment 4); assay type: in vivo, mouse; conditions: Compound A 1%, Tacrolimus 0.1%, Dexamethasone 0.01% w/v in 0.25% oxazolone
Experimental: (§2) [Antipruritic Effect of Test Compound in Chronic Oxazolone-Induced Dermatitis Model]
(§3) A magnet for measurement was implanted into an instep part of right hindlimb of BALB/c male mouse (fed for one week from five-week old; Charles River Laboratories, Japan Inc.) under anesthesia, and on the same day, sensitization was carried out by topically administering 0.5% w/v solution (10 μL) of oxazolone in acetone respectively onto the both sides of right ear auricle of the animal (sensitization day). On each point of the 7th, 9th, 11th, 14th and 16th day reckoned from the day after the sensitization (1st day), each mouse was challenged by topical administration of a 10 μL solution of test compound [acetone (vehicle-treated group), 0.25% w/v solution of oxazolone in acetone (oxazolone-treated group), or a test compound solubilized in 0.25% w/v oxazolone solution in acetone (test compound-treated group)] onto the both sides of right ear auricle of the animal to produce inflammatory reactions. Immediately after the administration, scratching behavior (counts of scratching) was measured for two hours by MicroAct. Thickness of right ear auricle of each mouse was measured by a thickness gauge before and 24 hours after the topical administration of each test compound solution. The percentage described in the Table means “% w/v”.

[5] = system: oxazolone-induced scratching behavior; test: Chronic oxazolone-induced dermatitis model: scratching behavior (Experiment 4); assay type: in vivo, mouse; conditions: Compound A 1%, Tacrolimus 0.1%, Dexamethasone 0.01% w/v in 0.25% oxazolone
Experimental: as §2, §3

[6] = sensitization day, BALB/c male mouse

COc1cc2cc(CO)c(CO)c(-c3ccnc(-n4ccc5c(CCc6cccnc6)cccc5c4=O)c3)c2cc1OC [Reference compound 3]
Antipruritic activity (ratio of inhibition rate on scratching behavior to that of Compound A) [1]: −36%
antipruritic effect in histamine-induced scratching model, result in words [1]: very weak or was not observed
IC50 (PDE4): 0.1 nM

Nc1nc2c([nH]1)c(=O)n(CC1CC1)c(=O)n2CC1CC1 [Cipamfylline, cipamfylline]
Spontaneous locomotor activity (Mean) ([2]; 0.03% w/v in acetone 50 μL topical): 6760 counts/30 min.
Spontaneous locomotor activity (Mean) ([2]; 0.1% w/v in acetone 50 μL topical): 5308 counts/30 min.
Spontaneous locomotor activity (Mean) ([2]; 0.3% w/v in acetone 50 μL topical): 4924 counts/30 min.
spontaneous locomotor activity lowering effect at a dose producing antipruritic effect, result in words ([2]; Compound A 3% w/v, cipamfylline 0.3% w/v): showed a significant spontaneous locomotor activity lowering effect
Counts of scratching (Mean) ([3]; 0.03% w/v in acetone 50 μL topical 1 h before histamine 300 nmol/50 μL): 579 beats/30 min.
Counts of scratching (Mean) ([3]; 0.1% w/v in acetone 50 μL topical 1 h before histamine 300 nmol/50 μL): 369 beats/30 min.
Counts of scratching (Mean) ([3]; 0.3% w/v in acetone 50 μL topical 1 h before histamine 300 nmol/50 μL): 130 beats/30 min.

COc1cc2cc(CO)c(CO)c(-c3ccnc(-n4ncc5ccccc5c4=O)c3)c2cc1OC [Compound B]
Antipruritic activity (ratio of inhibition rate on scratching behavior to that of Compound A) [1]: 154%
antipruritic effect in histamine-induced scratching model, result in words [1]: remarkable antipruritic effect
IC50 (PDE4): 1 nM

C=CC[C@@H]1/C=C(\C)C[C@H](C)C[C@H](OC)[C@H]2O[C@@](O)(C(=O)C(=O)N3CCCC[C@H]3C(=O)O[C@H](/C(C)=C/[C@@H]3CC[C@@H](O)[C@H](OC)C3)[C@H](C)[C@@H](O)CC1=O)[C@H](C)C[C@@H]2OC [Tacrolimus]
Ear auricle thickness (Mean) ([4]; 7th day): 0.35 mm
Ear auricle thickness (Mean) ([4]; 8th day): 0.58 mm
Ear auricle thickness (Mean) ([4]; 9th day): 0.41** mm
Ear auricle thickness (Mean) ([4]; 10th day): 0.49** mm
Ear auricle thickness (Mean) ([4]; 11th day): 0.49** mm
Ear auricle thickness (Mean) ([4]; 12th day): 0.57** mm
Ear auricle thickness (Mean) ([4]; 14th day): 0.52** mm
Ear auricle thickness (Mean) ([4]; 15th day): 0.73** mm
Ear auricle thickness (Mean) ([4]; 16th day): 0.65** mm
Ear auricle thickness (Mean) ([4]; 17th day): 0.71** mm
Ear auricle thickness (Mean) [4, 6]: 0.27 mm
Counts of scratching (Mean ± standard error) ([5]; 7th day, BALB/c male mouse): 1130 ± 135 (**) beats/2 hr.
Counts of scratching (Mean ± standard error) ([5]; 9th day): 1655 ± 231 beats/2 hr.
Counts of scratching (Mean ± standard error) ([5]; 11th day): 990 ± 148 beats/2 hr.
Counts of scratching (Mean ± standard error) ([5]; 14th day): 1023 ± 148 (**) beats/2 hr.
Counts of scratching (Mean ± standard error) ([5]; 16th day): 2164 ± 324 beats/2 hr.

COc1cc2cc(CO)c(CO)c(-c3ccnc(-n4c(=O)cc(O)c5ccccc54)c3)c2cc1OC [Compound D]
Antipruritic activity (ratio of inhibition rate on scratching behavior to that of Compound A) [1]: 80%
antipruritic effect in histamine-induced scratching model, result in words [1]: remarkable antipruritic effect
IC50 (PDE4): 2 nM

C[C@@H]1C[C@H]2[C@@H]3CCC4=CC(=O)C=C[C@]4(C)[C@@]3(F)[C@@H](O)C[C@]2(C)[C@@]1(O)C(=O)CO [Dexamethasone]
Ear auricle thickness (Mean) ([4]; 7th day): 0.35 mm
Ear auricle thickness (Mean) ([4]; 8th day): 0.46** mm
Ear auricle thickness (Mean) ([4]; 9th day): 0.40** mm
Ear auricle thickness (Mean) ([4]; 10th day): 0.45** mm
Ear auricle thickness (Mean) ([4]; 11th day): 0.43** mm
Ear auricle thickness (Mean) ([4]; 12th day): 0.54** mm
Ear auricle thickness (Mean) ([4]; 14th day): 0.49** mm
Ear auricle thickness (Mean) ([4]; 15th day): 0.55** mm
Ear auricle thickness (Mean) ([4]; 16th day): 0.54** mm
Ear auricle thickness (Mean) ([4]; 17th day): 0.64** mm
Ear auricle thickness (Mean) [4, 6]: 0.27 mm
Counts of scratching (Mean ± standard error) ([5]; 7th day, BALB/c male mouse): 1663 ± 144 (*) beats/2 hr.
Counts of scratching (Mean ± standard error) ([5]; 9th day): 1845 ± 442 beats/2 hr.
Counts of scratching (Mean ± standard error) ([5]; 11th day): 1274 ± 296 beats/2 hr.
Counts of scratching (Mean ± standard error) ([5]; 14th day): 1791 ± 354 beats/2 hr.
Counts of scratching (Mean ± standard error) ([5]; 16th day): 2211 ± 430 beats/2 hr.

COc1cc2cc(CO)c(CO)c(-c3ccnc(-n4c(=O)cc(OC)c5ccccc54)c3)c2cc1OC [Compound C]
Antipruritic activity (ratio of inhibition rate on scratching behavior to that of Compound A) [1]: 116%
antipruritic effect in histamine-induced scratching model, result in words [1]: remarkable antipruritic effect
IC50 (PDE4): 2 nM
